From PubChem BioAssay (NCI)
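Grown in 96-well plates, cells were treated for 48 hours with each compound at five concentrations. Insufficient inhibition: endpoint recorded as highest concentration tested. Abbreviation: GI50, concentration required for 50% inhibition of growth. TGI is the concentration that stops growth completely.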

Assays:
Test in all cases: DTP human tumour cell line panel, 48 h
[1] = tested on: 786-0 renal
[2] = tested on: A498 renal
[3] = tested on: A549 NSCLC
[4] = tested on: ACHN renal
[5] = tested on: BT-549 breast
[6] = tested on: CAKI-1 renal
[7] = tested on: CCRF-CEM leukemia
[8] = tested on: COLO 205 colon
[9] = tested on: DU-145 prostate
[10] = tested on: EKVX NSCLC
[11] = tested on: HCC-2998 colon
[12] = tested on: HCT-116 colon
[13] = tested on: HCT-15 colon
[14] = tested on: HL-60(TB) leukemia
[15] = tested on: HOP-62 NSCLC
[16] = tested on: HOP-92 NSCLC
[17] = tested on: HS 578T breast
[18] = tested on: HT29 colon
[19] = tested on: IGROV1 ovarian
[20] = tested on: K-562 leukemia
[21] = tested on: KM12 colon
[22] = tested on: LOX IMVI melanoma
[23] = tested on: M14 melanoma
[24] = tested on: MALME-3M melanoma
[25] = tested on: MCF7 breast
[26] = tested on: MDA-MB-231 breast
[27] = tested on: MDA-MB-435
[28] = tested on: MOLT-4 leukemia
[29] = tested on: NCI-H226 lung
[30] = tested on: NCI-H23 lung
[31] = tested on: NCI-H460 lung
[32] = tested on: NCI-H522 lung
[33] = tested on: NCI/ADR-RES ovarian
[34] = tested on: OVCAR-3 ovarian
[35] = tested on: OVCAR-4 ovarian
[36] = tested on: OVCAR-5 ovarian
[37] = tested on: OVCAR-8 ovarian
[38] = tested on: PC-3 prostate
[39] = tested on: RPMI-8226 leukemia
[40] = tested on: RXF 393 renal
[41] = tested on: SF-268 CNS
[42] = tested on: SF-539 CNS
[43] = tested on: SK-MEL-2 melanoma
[44] = tested on: SK-MEL-28 melanoma
[45] = tested on: SK-MEL-5 melanoma
[46] = tested on: SK-OV-3 ovarian
[47] = tested on: SN12C renal
[48] = tested on: SNB-19 CNS
[49] = tested on: SNB-75 CNS
[50] = tested on: SR leukemia
[51] = tested on: SW-620 colon
[52] = tested on: T-47D breast
[53] = tested on: TK-10 renal
[54] = tested on: U251 CNS
[55] = tested on: UACC-257 melanoma
[56] = tested on: UACC-62 melanoma
[57] = tested on: UO-31 renal

`CCCCCCOc1ccc(/C=N/NC(N)=S)cc1` gave a GI50 [1] of 1.74 µM, a TGI [1] of 6.05 µM and a GI50 [2] of 16.8 µM. For the same compound, the TGI [2] was 32.3 µM, the GI50 [3] was 31.8 µM and the TGI [3] was over 100 µM. For the same compound, the GI50 [4] was 5.89 µM, the TGI [4] was over 100 µM and the GI50 [5] was 2.79 µM. It also gave a TGI [5] of 9.15 µM, a GI50 [6] of 1.57 µM and a TGI [6] of 5.71 µM. The GI50 [7] was 0.605 µM, the TGI [7] was 7.69 µM and the GI50 [8] was 7.21 µM. It also gave a TGI [8] of 48.5 µM, a GI50 [9] of 7.26 µM and a TGI [9] of over 100 µM. For the same compound, the GI50 [10] was 2.83 µM, the TGI [10] was over 53.1 µM and the GI50 [11] was 6.45 µM. The TGI [11] was over 100 µM, the GI50 [12] was 3.31 µM and the TGI [12] was 16.1 µM. The GI50 [13] was 2.69 µM, the TGI [13] was over 100 µM and the GI50 [14] was 1.15 µM. It also gave a TGI [14] of 17.7 µM, a GI50 [15] of 60.1 µM and a TGI [15] of over 100 µM. The GI50 [16] was 2.39 µM, the TGI [16] was 27.4 µM and the GI50 [17] was 3.16 µM. The TGI [17] was 15 µM, the GI50 [18] was 3.21 µM and the TGI [18] was over 100 µM. It also gave a GI50 [19] of 0.922 µM, a TGI [19] of 5.36 µM and a GI50 [20] of 1.72 µM. The TGI [20] was over 26.8 µM, the GI50 [21] was 3.09 µM and the TGI [21] was 13.6 µM. It also gave a GI50 [22] of 3.78 µM, a TGI [22] of 21.1 µM and a GI50 [23] of 2.54 µM. The TGI [23] was 12.1 µM, the GI50 [24] was 2.74 µM and the TGI [24] was 7.82 µM. It also gave a GI50 [25] of 6.74 µM, a TGI [25] of 34.3 µM and a GI50 [26] of 1.67 µM. It also gave a TGI [26] of 17.1 µM, a GI50 [27] of 1.84 µM and a TGI [27] of 7.56 µM. The GI50 [28] was 0.432 µM, the TGI [28] was 5.26 µM and the GI50 [29] was 3.65 µM. It also gave a TGI [29] of 16.5 µM, a GI50 [30] of 4.3 µM and a TGI [30] of over 100 µM. For the same compound, the GI50 [31] was 10.2 µM, the TGI [31] was over 100 µM and the GI50 [32] was 0.421 µM. The TGI [32] was 1.76 µM, the GI50 [33] was 3.4 µM and the TGI [33] was 18.3 µM. The GI50 [34] was 1.97 µM, the TGI [34] was 6.6 µM and the GI50 [35] was 3.12 µM. For the same compound, the TGI [35] was 35 µM, the GI50 [36] was 12.8 µM and the TGI [36] was over 100 µM. The GI50 [37] was 7.69 µM, the TGI [37] was over 100 µM and the GI50 [38] was 4.07 µM. It also gave a TGI [38] of over 100 µM, a GI50 [39] of 1.36 µM and a TGI [39] of 4.41 µM. It also gave a GI50 [40] of 1.44 µM, a TGI [40] of 3.61 µM and a GI50 [41] of 3.31 µM. It also gave a TGI [41] of 41.8 µM, a GI50 [42] of 2.38 µM and a TGI [42] of 6.06 µM. It also gave a GI50 [43] of 6.95 µM, a TGI [43] of over 49.9 µM and a GI50 [44] of 10.9 µM. For the same compound, the TGI [44] was 38.4 µM, the GI50 [45] was 7.52 µM and the TGI [45] was 20.8 µM. It also gave a GI50 [46] of 27.2 µM, a TGI [46] of over 100 µM and a GI50 [47] of 2.16 µM. The TGI [47] was 9.9 µM, the GI50 [48] was 12.3 µM and the TGI [48] was over 100 µM. It also gave a GI50 [49] of 4.74 µM, a TGI [49] of 25.6 µM and a GI50 [50] of 4.22 µM. It also gave a TGI [50] of over 100 µM, a GI50 [51] of 1.99 µM and a TGI [51] of 20.5 µM. It also gave a GI50 [52] of 2.39 µM, a TGI [52] of 18.2 µM and a GI50 [53] of 5.54 µM. The TGI [53] was 30.1 µM, the GI50 [54] was 7.96 µM and the TGI [54] was over 100 µM. It also gave a GI50 [55] of 3.5 µM, a TGI [55] of 27.8 µM and a GI50 [56] of 2.58 µM. It also gave a TGI [56] of 10.3 µM, a GI50 [57] of 0.822 µM and a TGI [57] of 3.66 µM.
